Experiments:
[1] = Example 5 urine odor panel ranking; set-up: species or system Human
Experimental: Assessments were conducted the following day by asking panelists to rate each jar from 1 (least urine malodor) to 8 (most urine malodor). The results are set forth below in Tables 15-18.

[2] = Solubility of powder in urine
[3] = Example 6 urine odor panel ranking; set-up: species or system Human; conditions: as Example 5, 1 least, 8 most urine malodor
Description: The quinone compounds chosen for this example were Alizarin Blue Black B, Remazol Brilliant Blue R and Acid Green 25. The results are set forth below in Tables 19 and 20.

[4] = Example 7 urine odor panel ranking (16 millimolar); set-up: species or system Human; conditions: 16 millimolar in urine, 1 least, 10 most urine malodor
Experimental: The effectiveness of various quinone compounds in reducing urine odor was compared. […] Human female urine was initially collected and pooled at Kimberly-Clark Corporation. The pooled urine was added to mason jars in 50-milliliter aliquots using an automated pipette aid. Powders of the aforementioned quinone compounds (commercially available from Sigma-Aldrich Chemical Co., Inc. of St. Louis, Missouri and Noveon Hilton Davis, Inc. of Cincinnati, Ohio) were weighed and placed into the mason jars containing 50 milliliters of urine so that the final concentration of the powder was 16 millimolar (equivalent to 1 wt. %). The mason jars were placed in an incubator overnight at 37° C. The experimental setup is set forth in more detail below in Table 21.
Jars were wrapped in foil and placed in an incubator at 37° C. overnight. The jars were divided into four groups (C-F), each sharing the same control jar of urine alone (no powder). Assessments were conducted the following day by asking panelists to rate each jar from 1 (least urine malodor) to 10 (most urine malodor).

[5] = Example 3 secondary (non-urine) odor ranking; set-up: species or system Human; conditions: for Secondary Odor Ranking: individual panelist scores, scale 1 to 5, 5 extremely unpleasant
Experimental: (§1) The effectiveness of various quinone compounds in reducing urine odor was compared. […] Human female urine was initially collected and pooled by a nurse on staff at Kimberly-Clark Corporation. The pooled urine was added to mason jars in 50-milliliter aliquots using an automated pipette aid. […] The mason jars were placed in an incubator overnight at 37° C.
(§2) In addition to ranking the jars from least to most malodorous (on a scale from 1 to 7, with 7 being the most malodors), panelists were also asked to judge whether there were secondary (non-urine) odors present and, if so, the extent that the secondary odors were unpleasant (on a scale from 1 to 5, with 5 being extremely unpleasant).

[6] = Example 3 urine odor panel ranking; set-up: species or system Human; conditions: for Average Urine Odor Ranking (with statistical corrections), Avg. Score: ignoring statistical anomalies
Experimental: as §1, §2
In this assessment, panelists were given instructions to rank the least malodorous jar as “1” and the most malodorous jar as “10,” remaining free to rank the other jars between 2-9.

[7] = Example 1 urine odor panel ranking; set-up: species or system Human; conditions: 8 millimolar in urine; for Avg. Ranking (odor) / Ranking 4 (number of panelists) / Ranking 5 (number of panelists) / Ranking 1 (number of panelists) / Ranking 3 (number of panelists) / Ranking 7 (number of panelists): 1 least, 10 most malodorous
Description: Human female urine was initially collected and pooled by a nurse on staff at Kimberly-Clark Corporation. […] Powders of Acid Blue 129 and Acid Green 27 (commercially available from Sigma-Aldrich Chemical Co., Inc. of St. Louis, Mo.), as well as D&C Green No. 5 (commercially available from Noveon Hilton Davis, Inc. of Cincinnati, Ohio), were then weighed and placed into the mason jars containing 50 milliliters of urine so that the final concentration of the powder was 8 millimolar (equivalent to 0.5 wt. %). […] A score of “10” was assigned to the most malodorous jar and a score of “1” was assigned to the least malodorous jar.

[8] = Example 5 Group A, 8 mM in urine, 1 least, 8 most urine malodor
[9] = Example 5, 8 mM in 50 milliliters of urine
[10] = Example 7, 16 mM in 50 milliliters of urine
[11] = Example 3 first grouping, 8 millimolar in urine, scale 1 to 7, 7 most malodorous
[12] = Example 3 second grouping, 8 millimolar in urine, 1 least malodorous
[13] = Example 3 top performers of both groupings, after 24 hours, 1 least, 10 most malodorous
[14] = Example 3 top performers, after 24 hours
[15] = Example 3 top performers, after 24 hours, 1 least, 10 most malodorous
[16] = Example 5 Group B, 8 mM in urine, 1 least, 8 most urine malodor

Cc1ccc(Nc2ccc(Nc3ccc(C)cc3S(=O)(=O)[O-])c3c2C(=O)c2ccccc2C3=O)c(S(=O)(=O)[O-])c1.[Na+].[Na+] [Acid Green 25]
Average Rankings (Group A), Avg. Score [1, 8]: 3
Urine Odor Ranking 2 (number of panelists) [1, 8]: 1
Urine Odor Ranking 3 (number of panelists) [1, 8]: 2
Urine Odor Ranking 4 (number of panelists) [1, 8]: 1
Soluble? [2, 9]: Yes
Soluble? [2, 10]: Mostly
Average Rankings, Avg. Score [3]: 2.25
Urine Odor Ranking 1 (number of panelists) [3]: 2
Urine Odor Ranking 2 (number of panelists) [3]: 1
Urine Odor Ranking 5 (number of panelists) [3]: 1
Average Rankings (Group F), Avg. Score ([4]; Example 7 Group F): 3.2
Urine Odor Ranking 1 (number of panelists) ([4]; Example 7 Group F): 2
Urine Odor Ranking 2 (number of panelists) ([4]; Example 7 Group F): 1
Urine Odor Ranking 6 (number of panelists) ([4]; Example 7 Group F): 2
secondary odor (in words) ([5]; Example 3 first grouping): not found to be unpleasant by most panelists
urine odor reduction (in words) ([6]; Example 3 first grouping): functioned effectively to reduce odor
Average Urine Odor Ranking, Avg. Score [6, 11]: 2.2
Urine Odor Ranking 1 (number of panelists) [6, 11]: 3
Urine Odor Ranking 2 (number of panelists) [6, 11]: 1
Urine Odor Ranking 6 (number of panelists) [6, 11]: 1
Average Urine Odor Ranking, Avg. Score [6, 12]: 4.4
Urine Odor Ranking 1 (number of panelists) [6, 13]: 3
Urine Odor Ranking 2 (number of panelists) [6, 13]: 1
Urine Odor Ranking 10 (number of panelists) [6, 13]: 1
odor reduction (in words) [6, 14]: achieved the best odor reduction
Average Urine Odor Ranking, Avg. Score [6, 15]: 3.0
Average Urine Odor Ranking (with statistical corrections), Avg. Score [6, 14]: 1.3

CCCCc1ccc(Nc2ccc(Nc3ccc(CCCC)cc3S(=O)(=O)[O-])c3c2C(=O)c2ccccc2C3=O)c(S(=O)(=O)[O-])c1.[Na+].[Na+] [Acid Green 27]
Average Rankings (Group A), Avg. Score [1, 8]: 4.25
Urine Odor Ranking 3 (number of panelists) [1, 8]: 1
Urine Odor Ranking 4 (number of panelists) [1, 8]: 2
Urine Odor Ranking 6 (number of panelists) [1, 8]: 1
Soluble? [2, 9]: Mostly
Soluble? [2, 10]: Mostly
reducing urine malodor (in words) [7]: functioned effectively in reducing urine malodor
Avg. Ranking (odor) ([7]; after 6 hours): 4.4
Ranking 4 (number of panelists) ([7]; after 6 hours): 3
Ranking 5 (number of panelists) ([7]; after 6 hours): 2
Avg. Ranking (odor) ([7]; after 24 hours): 4.5
Ranking 1 (number of panelists) ([7]; after 24 hours): 1
Ranking 3 (number of panelists) ([7]; after 24 hours): 2
Ranking 7 (number of panelists) ([7]; after 24 hours): 3
Average Rankings (Group E), Avg. Score ([4]; Example 7 Group E): 6.2
Urine Odor Ranking 1 (number of panelists) ([4]; Example 7 Group E): 1
Urine Odor Ranking 5 (number of panelists) ([4]; Example 7 Group E): 1
Urine Odor Ranking 7 (number of panelists) ([4]; Example 7 Group E): 1
Urine Odor Ranking 8 (number of panelists) ([4]; Example 7 Group E): 1
Urine Odor Ranking 10 (number of panelists) ([4]; Example 7 Group E): 1
Secondary Odor Ranking ([5]; Example 3 second grouping): 2
Secondary Odor Ranking [5, 14]: 4
Average Urine Odor Ranking, Avg. Score [6, 12]: 3.6
Urine Odor Ranking 2 (number of panelists) [6, 12]: 2
Urine Odor Ranking 4 (number of panelists) [6, 12]: 1
Urine Odor Ranking 5 (number of panelists) [6, 12]: 2
Urine Odor Ranking 2 (number of panelists) [6, 13]: 1
Urine Odor Ranking 8 (number of panelists) [6, 13]: 2
Urine Odor Ranking 9 (number of panelists) [6, 13]: 1
Urine Odor Ranking 10 (number of panelists) [6, 13]: 1
Average Urine Odor Ranking, Avg. Score [6, 15]: 6.4
Average Urine Odor Ranking (with statistical corrections), Avg. Score [6, 14]: 8.8

Cc1ccc(Nc2ccc(Nc3ccc(C)cc3S(=O)(=O)[O-])c3c2C(=O)c2c(O)ccc(O)c2C3=O)c(S(=O)(=O)[O-])c1.[Na+].[Na+] [Acid Green 41]
Average Rankings (Group A), Avg. Score [1, 8]: 4.25
Urine Odor Ranking 2 (number of panelists) [1, 8]: 1
Urine Odor Ranking 3 (number of panelists) [1, 8]: 1
Urine Odor Ranking 5 (number of panelists) [1, 8]: 1
Urine Odor Ranking 7 (number of panelists) [1, 8]: 1
Soluble? [2, 9]: Yes
Soluble? [2, 10]: Yes
Average Rankings, Avg. Score [3]: 5.25
Urine Odor Ranking 3 (number of panelists) [3]: 1
Urine Odor Ranking 4 (number of panelists) [3]: 1
Urine Odor Ranking 6 (number of panelists) [3]: 1
Urine Odor Ranking 8 (number of panelists) [3]: 1
Average Rankings (Group D), Avg. Score ([4]; Example 7 Group D): 1.4
Urine Odor Ranking 1 (number of panelists) ([4]; Example 7 Group D): 4
Urine Odor Ranking 3 (number of panelists) ([4]; Example 7 Group D): 1
Secondary Odor Ranking ([5]; Example 3 first grouping): 1
urine odor reduction (in words) ([6]; Example 3 first grouping): functioned effectively to reduce odor
Average Urine Odor Ranking, Avg. Score [6, 11]: 2.4
Urine Odor Ranking 1 (number of panelists) [6, 11]: 1
Urine Odor Ranking 2 (number of panelists) [6, 11]: 2
Urine Odor Ranking 3 (number of panelists) [6, 11]: 1
Urine Odor Ranking 4 (number of panelists) [6, 11]: 1
Urine Odor Ranking 1 (number of panelists) [6, 13]: 1
Urine Odor Ranking 2 (number of panelists) [6, 13]: 2
Urine Odor Ranking 3 (number of panelists) [6, 13]: 1
Urine Odor Ranking 7 (number of panelists) [6, 13]: 1
odor reduction (in words) [6, 14]: achieved the best odor reduction
Average Urine Odor Ranking, Avg. Score [6, 15]: 3.0
Average Urine Odor Ranking (with statistical corrections), Avg. Score [6, 14]: 2.0

Cc1ccc(Nc2ccc(Nc3ccc(C)cc3S(=O)(=O)[O-])c3c2C(=O)c2ccccc2C3=O)c(S(=O)(=O)[O-])c1.[Na+].[Na+] [D&C Green No. 5]
odor reduction performance (in words) ([1]; Example 5 Group B): performed well
Average Rankings (Group B), Avg. Score [1, 16]: 4.25
Urine Odor Ranking 2 (number of panelists) [1, 16]: 1
Urine Odor Ranking 3 (number of panelists) [1, 16]: 1
Urine Odor Ranking 5 (number of panelists) [1, 16]: 1
Urine Odor Ranking 7 (number of panelists) [1, 16]: 1
Soluble? [2, 9]: Yes
Soluble? [2, 10]: Yes
Average Rankings, Avg. Score [3]: 6.25
Urine Odor Ranking 5 (number of panelists) [3]: 2
Urine Odor Ranking 7 (number of panelists) [3]: 1
Urine Odor Ranking 8 (number of panelists) [3]: 1
reducing urine malodor (in words) [7]: functioned effectively in reducing urine malodor
Avg. Ranking (odor) ([7]; after 6 hours): 3.0
Ranking 1 (number of panelists) ([7]; after 6 hours): 1
Ranking 3 (number of panelists) ([7]; after 6 hours): 3
Ranking 5 (number of panelists) ([7]; after 6 hours): 1
Avg. Ranking (odor) ([7]; after 24 hours): 5.2
Ranking 4 (number of panelists) ([7]; after 24 hours): 3
Ranking 5 (number of panelists) ([7]; after 24 hours): 1
Ranking 7 (number of panelists) ([7]; after 24 hours): 2
Average Rankings (Group D), Avg. Score ([4]; Example 7 Group D): 7
Urine Odor Ranking 5 (number of panelists) ([4]; Example 7 Group D): 2
Urine Odor Ranking 7 (number of panelists) ([4]; Example 7 Group D): 1
Urine Odor Ranking 9 (number of panelists) ([4]; Example 7 Group D): 2
Secondary Odor Ranking ([5]; Example 3 second grouping): 4
Secondary Odor Ranking [5, 14]: 4
urine odor reduction (in words) ([6]; Example 3 second grouping): did not perform as well compared to the other quinone compounds
Urine Odor Ranking 4 (number of panelists) [6, 12]: 3
Urine Odor Ranking 5 (number of panelists) [6, 12]: 2
Urine Odor Ranking 2 (number of panelists) [6, 13]: 1
Urine Odor Ranking 4 (number of panelists) [6, 13]: 1
Urine Odor Ranking 7 (number of panelists) [6, 13]: 2
Urine Odor Ranking 10 (number of panelists) [6, 13]: 1
Average Urine Odor Ranking, Avg. Score [6, 15]: 6.0
Average Urine Odor Ranking (with statistical corrections), Avg. Score [6, 14]: 7.0

CCN(Cc1cccc(S(=O)(=O)[O-])c1)c1ccc(C(=C2C=CC(=[N+](CC)Cc3cccc(S(=O)(=O)[O-])c3)C=C2)c2ccccc2S(=O)(=O)[O-])cc1.[Na+].[Na+] [FD&C Blue No. 1, FD&C Blue No.1, reference compound]
Secondary Odor Ranking ([5]; Example 3 first grouping): 3
Average Urine Odor Ranking, Avg. Score [6, 11]: 4.8
Urine Odor Ranking 4 (number of panelists) [6, 11]: 1
Urine Odor Ranking 5 (number of panelists) [6, 11]: 4

From patent US20070048247A1, “Deodorizing tablets” (Kimberly-Clark Worldwide, Inc., priority 2005, published 2007)
